Experimental findings from the NIST ThermoML archive (doi:10.1021/acs.jced.9b00243) are described below.

SMILES strings stand for the structures. Numbers after ± are expanded uncertainties.

For data set [1] the following is noted: Crystal; DSC.
Data set [2] can be described thus: Molar enthalpy of transition or fusion. The settings on record: Crystal; DSC.

Regarding `N#CCc1ccccc1[N+](=O)[O-]` [o-nitrophenylacetonitrile], the Triple point temperature in data set [1] turned out to be 351.59 ± 1.2 K. The “Molar enthalpy of transition or fusion” value in data set [2] is 3.4 ± 0.22 kcal/mol.
